Each structure is given as a SMILES string.

Consider one compound from ChEMBL document CHEMBL1126714, “Structure, DNA minor groove binding, and base pair specificity of alkyl- and aryl-linked bis(amidinobenzimidazoles) and bis(amidinoindoles)” (J Med Chem, 1993).

Common to all, as to format: nucleic-acid assay
In assay [1] the test system is Calf thymus DNA. Kind of assay: Thermal denaturation in sonicated calf thymus DNA (CT DNA). The following applies: Bos taurus.
Assay [2] relates to Nucleic Acid. Kind of assay: Thermal denaturation in alternating poly(dA-dT)poly(dA-dT) homopolymer (AT).
Assay [3] relates to Nucleic Acid. Briefly: Thermal denaturation in sonicated poly(dA)-poly(dT) homopolymer (AT).
Assay [4] concerns Nucleic Acid. Kind of assay: Thermal denaturation in alternating poly(dG-dC)-poly(dG-dC) homopolymer (GC).
Assay [5] relates to Nucleic Acid. Briefly: Ratio between poly-dAdT and poly-dGdC binding.

Broadly, the Tm is the temperature at the midpoint of the melting transition. Take `Cc1cc(-c2nc3cc(C(=N)N)ccc3[nH]2)c(C)cc1-c1nc2cc(C(=N)N)ccc2[nH]1`: the Tm in assay [1] worked out at 15.6 °C; in assay [2], 26.5 °C; in assay [3] it was 29 °C; in assay [4], 3.7 °C. In addition, the Ratio in assay [5] turned out to be 7.
